Results taken from ChEMBL document CHEMBL1641373, “Trishomocubane as a scaffold for the development of selective dopamine transporter (DAT) ligands” (Bioorg Med Chem Lett, 2011).

Key:
[1] = molecular target: Sodium-dependent noradrenaline transporter (Homo sapiens, UniProt P23975); assay: Inhibition of NET
[2] = molecular target: Sodium-dependent serotonin transporter (Homo sapiens, UniProt P31645); assay: Inhibition of SERT
[3] = molecular target: Sodium-dependent dopamine transporter (Homo sapiens, UniProt Q01959); assay: Inhibition of DAT
Chain of Sodium-dependent dopamine transporter (Q01959 whole entry): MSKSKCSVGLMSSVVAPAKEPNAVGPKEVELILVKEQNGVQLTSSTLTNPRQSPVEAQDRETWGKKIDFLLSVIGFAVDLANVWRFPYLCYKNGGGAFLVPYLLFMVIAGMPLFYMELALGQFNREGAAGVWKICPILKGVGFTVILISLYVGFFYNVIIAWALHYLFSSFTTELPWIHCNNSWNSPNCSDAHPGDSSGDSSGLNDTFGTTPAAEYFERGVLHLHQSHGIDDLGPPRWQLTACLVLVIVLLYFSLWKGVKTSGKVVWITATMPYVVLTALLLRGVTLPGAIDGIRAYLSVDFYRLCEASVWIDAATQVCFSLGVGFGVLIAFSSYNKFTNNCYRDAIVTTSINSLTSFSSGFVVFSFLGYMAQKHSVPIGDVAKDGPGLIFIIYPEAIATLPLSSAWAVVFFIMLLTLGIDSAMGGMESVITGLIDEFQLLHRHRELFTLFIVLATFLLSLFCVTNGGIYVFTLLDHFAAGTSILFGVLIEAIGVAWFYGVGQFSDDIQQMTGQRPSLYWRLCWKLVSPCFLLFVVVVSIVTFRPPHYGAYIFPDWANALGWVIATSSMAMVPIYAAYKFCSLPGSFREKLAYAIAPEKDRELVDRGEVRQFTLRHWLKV

Chain of Sodium-dependent noradrenaline transporter (P23975 whole entry): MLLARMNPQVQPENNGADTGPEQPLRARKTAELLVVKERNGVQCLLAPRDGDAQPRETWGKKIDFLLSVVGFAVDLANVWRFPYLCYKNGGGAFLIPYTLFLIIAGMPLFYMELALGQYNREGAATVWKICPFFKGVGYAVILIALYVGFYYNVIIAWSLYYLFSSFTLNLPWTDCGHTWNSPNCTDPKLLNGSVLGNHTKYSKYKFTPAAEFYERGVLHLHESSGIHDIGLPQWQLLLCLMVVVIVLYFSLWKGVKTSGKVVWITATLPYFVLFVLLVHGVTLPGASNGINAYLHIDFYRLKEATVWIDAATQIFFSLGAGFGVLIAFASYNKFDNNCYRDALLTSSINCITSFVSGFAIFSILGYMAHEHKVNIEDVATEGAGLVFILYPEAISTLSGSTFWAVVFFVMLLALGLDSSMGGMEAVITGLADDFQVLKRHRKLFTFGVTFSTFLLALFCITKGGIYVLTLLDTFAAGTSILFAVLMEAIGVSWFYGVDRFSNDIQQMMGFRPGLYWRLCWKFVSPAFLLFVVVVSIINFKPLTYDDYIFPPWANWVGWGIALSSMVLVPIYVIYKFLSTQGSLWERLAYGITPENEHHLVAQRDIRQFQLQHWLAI
Chain of Sodium-dependent serotonin transporter (P31645 whole entry): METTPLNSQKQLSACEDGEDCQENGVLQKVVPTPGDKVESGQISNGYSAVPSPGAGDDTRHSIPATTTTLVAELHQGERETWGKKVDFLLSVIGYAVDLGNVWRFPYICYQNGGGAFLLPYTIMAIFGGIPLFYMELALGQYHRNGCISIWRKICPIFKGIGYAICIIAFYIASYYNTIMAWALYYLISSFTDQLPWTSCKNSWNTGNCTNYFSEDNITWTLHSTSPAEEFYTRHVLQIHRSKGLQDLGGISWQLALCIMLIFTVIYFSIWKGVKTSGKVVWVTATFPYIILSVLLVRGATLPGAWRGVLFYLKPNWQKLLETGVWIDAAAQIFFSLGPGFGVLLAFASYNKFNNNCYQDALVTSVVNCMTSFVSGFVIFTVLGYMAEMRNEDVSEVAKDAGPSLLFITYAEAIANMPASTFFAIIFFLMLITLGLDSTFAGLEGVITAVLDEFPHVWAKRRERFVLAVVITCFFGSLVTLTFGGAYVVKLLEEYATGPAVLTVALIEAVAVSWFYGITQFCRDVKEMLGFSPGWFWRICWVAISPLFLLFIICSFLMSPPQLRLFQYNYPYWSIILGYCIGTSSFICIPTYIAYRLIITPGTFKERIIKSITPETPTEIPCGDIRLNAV

Row | SMILES | Ki [1] [µM] | Ki [2] [µM] | Ki [3] [µM] | IC50 [1] [µM] | IC50 [2] [µM] | IC50 [3] [µM]
1 | COC(=O)[C@H]1[C@@H](c2ccc(C)cc2)C[C@H]2CC[C@@H]1N2C/C=C/I | > 1 | 0.5 | 0.017 |  |  | 
2 | CN1[C@H]2CC[C@@H]1[C@@H](C(=O)N1CCCC1)[C@@H](c1ccc(I)cc1)C2 |  |  |  | 1.73 | 0.991 | 0.00037
3 | COC(=O)[C@@H]1C2CCC(C[C@@H]1c1ccc(C)cc1)N2C/C=C/CF (some centres undefined) |  |  |  | > 1 | > 1 | 0.0024
4 | CCCCC1=C(c2ccc(Cl)cc2)C2CCN1CC2 |  |  | 0.014 |  |  | 
5 | CN(C)C[C@H]1C2CCC(CC2)[C@H]1c1ccc(Cl)c(Cl)c1 | 0.044 | 0.057 | 0.0072 |  |  | 
6 | NCCN1[C@@H]2CC[C@H]1C[C@@H](NC(c1ccc(F)cc1)c1ccc(F)cc1)C2 |  |  | 0.0125 |  |  | 
